# Publication PMC3523469 (Investigational New Drugs, 2012)
# Read-outs that look alike come from different tables or passages of the source.
# Assay type: in vivo, Japanese patients
smiles,measurement,setting,value
"COc1cc2ncnc(Nc3ccc(F)c(Cl)c3)c2cc1NC(=O)/C=C/CN1CCCCC1 [dacomitinib, Dacomitinib]","Dry skin, number of patients with treatment-related AE","30 mg QD (n = 3), G3",0
same,"ECG QT prolonged, number of patients with treatment-related AE","30 mg QD (n = 3), G3",0
same,"Edema, number of patients with treatment-related AE","30 mg QD (n = 3), G3",0
same,"Fatigue, number of patients with treatment-related AE","30 mg QD (n = 3), G3",0
same,"Hematuria, number of patients with treatment-related AE","30 mg QD (n = 3), G3",0
same,"Hypertrichosis, number of patients with treatment-related AE","30 mg QD (n = 3), G3",0
same,"Leukopenia, number of patients with treatment-related AE","30 mg QD (n = 3), G3",0
same,"Nausea, number of patients with treatment-related AE","30 mg QD (n = 3), G3",0
same,"Palmar–plantar erythrodysesthesia, number of patients with treatment-related AE","30 mg QD (n = 3), G3",0
same,"Paronychia, number of patients with treatment-related AE","30 mg QD (n = 3), G3",0
same,"Proteinuria, number of patients with treatment-related AE","30 mg QD (n = 3), G3",0
same,"Rash, number of patients with treatment-related AE","30 mg QD (n = 3), G3",0
same,"Skin fissures, number of patients with treatment-related AE","30 mg QD (n = 3), G3",0
same,"Stomatitis, number of patients with treatment-related AE","30 mg QD (n = 3), G3",0
same,"Weight decreased, number of patients with treatment-related AE","30 mg QD (n = 3), G3",0
same,"Alanine aminotransferase increased, number of patients with treatment-related AE","45 mg QD (n = 7), All",2
same,"Aspartate aminotransferase increased, number of patients with treatment-related AE","45 mg QD (n = 7), All",2
same,"Blood bilirubin increased, number of patients with treatment-related AE","45 mg QD (n = 7), All",2
same,"Cheilitis, number of patients with treatment-related AE","45 mg QD (n = 7), All",2
same,"Conjunctivitis, number of patients with treatment-related AE","45 mg QD (n = 7), All",3
same,"Decreased appetite, number of patients with treatment-related AE","45 mg QD (n = 7), All",2
same,"Diarrhea, number of patients with treatment-related AE","45 mg QD (n = 7), All",7
same,"Dry skin, number of patients with treatment-related AE","45 mg QD (n = 7), All",5
same,"ECG QT prolonged, number of patients with treatment-related AE","45 mg QD (n = 7), All",0
same,"Edema, number of patients with treatment-related AE","45 mg QD (n = 7), All",2
same,"Fatigue, number of patients with treatment-related AE","45 mg QD (n = 7), All",5
same,"Hematuria, number of patients with treatment-related AE","45 mg QD (n = 7), All",2
same,"Hypertrichosis, number of patients with treatment-related AE","45 mg QD (n = 7), All",2
same,"Leukopenia, number of patients with treatment-related AE","45 mg QD (n = 7), All",3
same,"Nausea, number of patients with treatment-related AE","45 mg QD (n = 7), All",2
same,"Palmar–plantar erythrodysesthesia, number of patients with treatment-related AE","45 mg QD (n = 7), All",2
same,"Paronychia, number of patients with treatment-related AE","45 mg QD (n = 7), All",6
same,"Proteinuria, number of patients with treatment-related AE","45 mg QD (n = 7), All",3
same,"Rash, number of patients with treatment-related AE","45 mg QD (n = 7), All",7
same,"Skin fissures, number of patients with treatment-related AE","45 mg QD (n = 7), All",2
same,"Stomatitis, number of patients with treatment-related AE","45 mg QD (n = 7), All",5
same,"Weight decreased, number of patients with treatment-related AE","45 mg QD (n = 7), All",2
same,"Alanine aminotransferase increased, number of patients with treatment-related AE","45 mg QD (n = 7), G1",0
same,"Aspartate aminotransferase increased, number of patients with treatment-related AE","45 mg QD (n = 7), G1",0
same,"Blood bilirubin increased, number of patients with treatment-related AE","45 mg QD (n = 7), G1",0
same,"Cheilitis, number of patients with treatment-related AE","45 mg QD (n = 7), G1",2
same,"Conjunctivitis, number of patients with treatment-related AE","45 mg QD (n = 7), G1",3
same,"Decreased appetite, number of patients with treatment-related AE","45 mg QD (n = 7), G1",0
same,"Diarrhea, number of patients with treatment-related AE","45 mg QD (n = 7), G1",4
same,"Dry skin, number of patients with treatment-related AE","45 mg QD (n = 7), G1",5
same,"ECG QT prolonged, number of patients with treatment-related AE","45 mg QD (n = 7), G1",0
same,"Edema, number of patients with treatment-related AE","45 mg QD (n = 7), G1",1
same,"Fatigue, number of patients with treatment-related AE","45 mg QD (n = 7), G1",1
same,"Hematuria, number of patients with treatment-related AE","45 mg QD (n = 7), G1",2
same,"Hypertrichosis, number of patients with treatment-related AE","45 mg QD (n = 7), G1",2
same,"Leukopenia, number of patients with treatment-related AE","45 mg QD (n = 7), G1",1
same,"Nausea, number of patients with treatment-related AE","45 mg QD (n = 7), G1",1
same,"Palmar–plantar erythrodysesthesia, number of patients with treatment-related AE","45 mg QD (n = 7), G1",0
same,"Paronychia, number of patients with treatment-related AE","45 mg QD (n = 7), G1",1
same,"Proteinuria, number of patients with treatment-related AE","45 mg QD (n = 7), G1",2
same,"Rash, number of patients with treatment-related AE","45 mg QD (n = 7), G1",1
same,"Skin fissures, number of patients with treatment-related AE","45 mg QD (n = 7), G1",1
same,"Stomatitis, number of patients with treatment-related AE","45 mg QD (n = 7), G1",4
same,"Weight decreased, number of patients with treatment-related AE","45 mg QD (n = 7), G1",0
same,"Alanine aminotransferase increased, number of patients with treatment-related AE","45 mg QD (n = 7), G2",1
same,"Aspartate aminotransferase increased, number of patients with treatment-related AE","45 mg QD (n = 7), G2",1
same,"Blood bilirubin increased, number of patients with treatment-related AE","45 mg QD (n = 7), G2",1
same,"Cheilitis, number of patients with treatment-related AE","45 mg QD (n = 7), G2",0
same,"Conjunctivitis, number of patients with treatment-related AE","45 mg QD (n = 7), G2",0
same,"Decreased appetite, number of patients with treatment-related AE","45 mg QD (n = 7), G2",1
same,"Diarrhea, number of patients with treatment-related AE","45 mg QD (n = 7), G2",3
same,"Dry skin, number of patients with treatment-related AE","45 mg QD (n = 7), G2",0
same,"ECG QT prolonged, number of patients with treatment-related AE","45 mg QD (n = 7), G2",0
same,"Edema, number of patients with treatment-related AE","45 mg QD (n = 7), G2",1
same,"Fatigue, number of patients with treatment-related AE","45 mg QD (n = 7), G2",4
same,"Hematuria, number of patients with treatment-related AE","45 mg QD (n = 7), G2",0
same,"Hypertrichosis, number of patients with treatment-related AE","45 mg QD (n = 7), G2",0
same,"Leukopenia, number of patients with treatment-related AE","45 mg QD (n = 7), G2",2
same,"Nausea, number of patients with treatment-related AE","45 mg QD (n = 7), G2",1
same,"Palmar–plantar erythrodysesthesia, number of patients with treatment-related AE","45 mg QD (n = 7), G2",2
same,"Paronychia, number of patients with treatment-related AE","45 mg QD (n = 7), G2",5
same,"Proteinuria, number of patients with treatment-related AE","45 mg QD (n = 7), G2",1
same,"Rash, number of patients with treatment-related AE","45 mg QD (n = 7), G2",4
same,"Skin fissures, number of patients with treatment-related AE","45 mg QD (n = 7), G2",1
same,"Stomatitis, number of patients with treatment-related AE","45 mg QD (n = 7), G2",1
same,"Weight decreased, number of patients with treatment-related AE","45 mg QD (n = 7), G2",2
